Measurements published in PubChem BioAssay (NCI).
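Grown in 96-well plates, cells were treated for 48 hours with each compound at five concentrations. Insufficient inhibition: endpoint recorded as highest concentration tested. Here, GI50 denotes the concentration required for 50% inhibition of growth. TGI is the concentration that stops growth completely.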

Columns and labels:
Test in all cases: NCI-60 cell line screen, 48 h
CAKI-1 renal = system: CAKI-1 renal
CCRF-CEM leukemia = system: CCRF-CEM leukemia
HCT-116 colon = system: HCT-116 colon
HOP-62 NSCLC = system: HOP-62 NSCLC
HT29 colon = system: HT29 colon
KM12 colon = system: KM12 colon
RPMI-8226 leukemia = system: RPMI-8226 leukemia
SK-MEL-2 melanoma = system: SK-MEL-2 melanoma
SN12C renal = system: SN12C renal
RXF 393 renal = system: RXF 393 renal

| SMILES | TGI (CAKI-1 renal) | TGI (CCRF-CEM leukemia) | TGI (HCT-116 colon) | TGI (HOP-62 NSCLC) | TGI (HT29 colon) | TGI (KM12 colon) | TGI (RPMI-8226 leukemia) | TGI (SK-MEL-2 melanoma) | TGI (SN12C renal) | TGI (RXF 393 renal) | GI50 (CAKI-1 renal) | GI50 (CCRF-CEM leukemia) | GI50 (HCT-116 colon) | GI50 (HOP-62 NSCLC) | GI50 (KM12 colon) | GI50 (RPMI-8226 leukemia) | GI50 (RXF 393 renal) | GI50 (SK-MEL-2 melanoma) | GI50 (SN12C renal) | GI50 (HT29 colon) |
| --- | --- | --- | --- | --- | --- | --- | --- | --- | --- | --- | --- | --- | --- | --- | --- | --- | --- | --- | --- | --- |
| COc1ccc(/C=C\c2cc(OC)c(O[Si](C)(C)C(C)(C)C)c(OC)c2)cc1 | > 100 µM | 49.8 µM | > 100 µM | > 100 µM | > 100 µM | > 100 µM | 83.3 µM | 65.2 µM | > 100 µM | – | – | – | – | – | – | – | – | – | – | – |
| Cc1ccccc1C1=C(C(=O)Nc2ccc(Cl)c(Cl)c2)NC(=S)NC1N (configuration not stated) | > 100 µM | > 100 µM | > 100 µM | – | > 100 µM | > 100 µM | > 100 µM | > 100 µM | > 100 µM | > 100 µM | – | – | – | – | – | – | – | – | – | – |
| NCCCCNc1ccc2c(=O)[nH][nH]c(=O)c2c1 | > 100 µM | > 100 µM | > 100 µM | > 100 µM | > 100 µM | > 100 µM | – | > 100 µM | > 100 µM | > 100 µM | – | – | – | – | – | – | – | – | – | – |
| Nc1ccccc1C#C/C=C\C#Cc1ccccc1[N+](=O)[O-] | 23 µM | 18.1 µM | 36 µM | 48.6 µM | – | 70.6 µM | > 100 µM | 34.7 µM | 13.7 µM | 9.06 µM | 3.28 µM | 3.75 µM | 4.31 µM | 17.5 µM | 3.19 µM | 4.58 µM | 2.07 µM | 12.9 µM | 3.18 µM | – |
| Cc1ccc(-c2csc(NC(=O)CN3CCN(c4cc5c(cc4F)c(=O)c(C(=O)O)cn5C4CC4)CC3)n2)cc1 | – | > 100 µM | 14.8 µM | 14.6 µM | 6.91 µM | > 100 µM | 1.47 µM | 4.09 µM | 15.4 µM | 17.8 µM | – | 0.569 µM | 0.348 µM | 0.393 µM | 0.508 µM | 0.331 µM | 0.633 µM | 1.33 µM | 0.413 µM | 0.326 µM |
| Cc1ccc(-c2cc(-c3ccccc3)c(C#N)c(=O)n2C2OC(CO)C(O)C(O)C2O)cc1 (configuration not stated) | – | > 100 µM | > 100 µM | > 100 µM | > 100 µM | > 100 µM | > 100 µM | – | > 100 µM | > 100 µM | – | – | – | – | – | – | – | – | – | – |
| Cc1cccc(C)c1NC(=O)C1C(=O)N(c2c(C)cccc2C)C(=O)/C1=N\NC(N)=S (configuration not stated) | – | > 100 µM | > 100 µM | > 100 µM | > 100 µM | > 100 µM | > 100 µM | > 100 µM | > 100 µM | > 100 µM | – | – | – | – | – | – | – | – | – | – |
| CC1C(=O)OCC2=CCN3CCC(OC(=O)C(C)C1(C)O)C23 (configuration not stated) | > 100 µM | > 100 µM | > 100 µM | – | > 100 µM | > 100 µM | > 100 µM | > 100 µM | > 100 µM | – | – | – | – | – | – | – | – | – | – | – |
| COC(=O)C(=O)C(C(=O)C(=O)Nc1cccc(C(C)=O)c1)c1nc2ccccc2[nH]c1=O (configuration not stated) | > 100 µM | > 100 µM | – | – | > 100 µM | > 100 µM | – | > 100 µM | – | > 100 µM | – | – | – | – | – | – | – | – | – | – |
| CCCOc1ccc2nc(NC(=O)OC)[nH]c2c1 | > 100 µM | > 100 µM | > 100 µM | > 78.8 µM | > 100 µM | > 100 µM | > 100 µM | > 100 µM | > 100 µM | – | 0.29 µM | 0.273 µM | 0.22 µM | 0.417 µM | 0.0974 µM | 0.502 µM | – | 1.19 µM | 0.597 µM | 0.174 µM |
